Data taken from patent publication US20260092179A1, “GENETICALLY MODIFIED HOST CELLS PRODUCING VIOLACEIN, ANALOGUES, AND DERIVATIVES THEREOF” (OCTARINE BIO APS, priority 2022, published 2026).

Experiments:
Assay type in all cases: physicochemical
[1] = Stability during laundering of dyed fabrics (colour fastness, ΔE); conditions: washed at 30° c.
Procedure: (§1) In order to assess the stability and colour fastness of violacein and violacein derivatives dyed onto fabrics, dyed fabrics were subjected to a number of conditions. Fabrics were dyed according to Example 18 and colour coordinates and colour change before and after exposure to a given condition were determined as described in Example 18. To measure temperature stability, fabrics were incubated in an oven set to 80° c. for 4 h. To measure stability under acid and alkaline conditions, fabrics were fully submerged in water solutions set to pH 8 with NaOH and pH 5 with HCl and incubated at room temperature for 30 minutes. Fabrics were then incubated at 37° c. for 4 h. To measure stability during laundering, fabrics were washed at 30° c. under the “mix” setting of a Siemens IQ300 washing machine, then dried in a Siemens IQ300 dryer until dry. To measure artificial light stability, fabrics were placed under an LED lamp at room temperature for 16 h. To measure UV light stability, fabrics were placed under a UV lamp at room temperature for 1 h.

[2] = Temperature stability of dyed fabrics (colour fastness, ΔE); conditions: oven 80° c. for 4 h; for ΔE: before and after the stability test
Procedure: as §1

[3] = Alkaline pH stability of dyed fabrics (colour fastness, ΔE); conditions: pH 8 with NaOH
Procedure: as §1

[4] = Acrylic, before and after the stability test
[5] = Bleached cotton, before and after the stability test
[6] = Diacetate, before and after the stability test
[7] = Nylon 6,6, before and after the stability test
[8] = Polyester, before and after the stability test
[9] = Wool, before and after the stability test

L ([1]; Acrylic, After test): 76.54 | a ([1]; Acrylic, After test): 1.43 | b ([1]; Acrylic, After test): 1.73 | L ([1]; Acrylic, Before test): 62.97 | a ([1]; Acrylic, Before test): 2.52 | b ([1]; Acrylic, Before test): 0.79 | ΔE [1, 4]: 13.65 | L ([1]; Bleached cotton, After test): 67.09 | a ([1]; Bleached cotton, After test): 2.56 | b ([1]; Bleached cotton, After test): −9.43 | L ([1]; Bleached cotton, Before test): 59.44 | a ([1]; Bleached cotton, Before test): 2.08 | b ([1]; Bleached cotton, Before test): −7.15 | ΔE [1, 5]: 8.00 | L ([1]; Diacetate, After test): 48.28 | a ([1]; Diacetate, After test): 7.64 | b ([1]; Diacetate, After test): −12.1 | L ([1]; Diacetate, Before test): 44.66 | a ([1]; Diacetate, Before test): 6.86 | b ([1]; Diacetate, Before test): −11.23 | ΔE [1, 6]: 3.80 | L ([1]; Nylon 6,6, After test): 36.95 | a ([1]; Nylon 6,6, After test): 5.38 | b ([1]; Nylon 6,6, After test): −21.45 | L ([1]; Nylon 6,6, Before test): 34.78 | a ([1]; Nylon 6,6, Before test): 4.7 | b ([1]; Nylon 6,6, Before test): −19.46 | ΔE [1, 7]: 3.02 | L ([1]; Polyester, After test): 78.67 | a ([1]; Polyester, After test): 0.26 | b ([1]; Polyester, After test): 0.27 | L ([1]; Polyester, Before test): 69.07 | a ([1]; Polyester, Before test): 1.41 | b ([1]; Polyester, Before test): −0.67 | ΔE [1, 8]: 9.71 | L ([1]; Wool, After test): 73.9 | a ([1]; Wool, After test): 1.48 | b ([1]; Wool, After test): 1.8 | L ([1]; Wool, Before test): 66.17 | a ([1]; Wool, Before test): 1.43 | b ([1]; Wool, Before test): 0.12 | ΔE [1, 9]: 7.91 | L ([2]; Acrylic, After test): 62.99 | a ([2]; Acrylic, After test): 2.58 | b ([2]; Acrylic, After test): −1.01 | L ([2]; Acrylic, Before test): 64.83 | a ([2]; Acrylic, Before test): 1.28 | b ([2]; Acrylic, Before test): 1.7 | ΔE ([2]; Acrylic): 3.52 | L ([2]; Bleached cotton, After test): 59.33 | a ([2]; Bleached cotton, After test): 3.72 | b ([2]; Bleached cotton, After test): −8.18 | L ([2]; Bleached cotton, Before test): 60.51 | a ([2]; Bleached cotton, Before test): 2.66 | b ([2]; Bleached cotton, Before test): −6.54 | ΔE ([2]; Bleached cotton): 2.28 | L ([2]; Diacetate, After test): 41.38 | a ([2]; Diacetate, After test): 10.6 | b ([2]; Diacetate, After test): −12.61 | L ([2]; Diacetate, Before test): 43.1 | a ([2]; Diacetate, Before test): 8.4 | b ([2]; Diacetate, Before test): −12.5 | ΔE ([2]; Diacetate): 2.79 | L ([2]; Nylon 6,6, After test): 33.74 | a ([2]; Nylon 6,6, After test): 5.53 | b ([2]; Nylon 6,6, After test): −19.85 | L ([2]; Nylon 6,6, Before test): 34.91 | a ([2]; Nylon 6,6, Before test): 5 | b ([2]; Nylon 6,6, Before test): −20.42 | ΔE ([2]; Nylon 6,6): 1.41 | L ([2]; Polyester, After test): 67.81 | a ([2]; Polyester, After test): 4.37 | b ([2]; Polyester, After test): −3.55 | L ([2]; Polyester, Before test): 68.98 | a ([2]; Polyester, Before test): 3.25 | b ([2]; Polyester, Before test): −1.56 | ΔE ([2]; Polyester): 2.57 | L ([2]; Wool, After test): 67.34 | a ([2]; Wool, After test): 1.87 | b ([2]; Wool, After test): −0.17 | L ([2]; Wool, Before test): 67 | a ([2]; Wool, Before test): 1.5 | b ([2]; Wool, Before test): 0.36 | ΔE ([2]; Wool): 0.73 | L ([3]; Acrylic, After test): 63.85 | a ([3]; Acrylic, After test): 2.52 | b ([3]; Acrylic, After test): 0.06 | L ([3]; Acrylic, Before test): 65.79 | a ([3]; Acrylic, Before test): 3.11 | b ([3]; Acrylic, Before test): 0.28 | ΔE [3, 4]: 2.04 | L ([3]; Bleached cotton, After test): 60.76 | a ([3]; Bleached cotton, After test): 3.22 | b ([3]; Bleached cotton, After test): −7.53 | L ([3]; Bleached cotton, Before test): 59.94 | a ([3]; Bleached cotton, Before test): 2.69 | b ([3]; Bleached cotton, Before test): −8.23 | ΔE [3, 5]: 1.20 | L ([3]; Diacetate, After test): 44.97 | a ([3]; Diacetate, After test): 7.85 | b ([3]; Diacetate, After test): −11.19 | L ([3]; Diacetate, Before test): 43.93 | a ([3]; Diacetate, Before test): 8.84 | b ([3]; Diacetate, Before test): −14.67 | ΔE [3, 6]: 3.76 | L ([3]; Nylon 6,6, After test): 33.91 | a ([3]; Nylon 6,6, After test): 5.25 | b ([3]; Nylon 6,6, After test): −19.35 | L ([3]; Nylon 6,6, Before test): 34.13 | a ([3]; Nylon 6,6, Before test): 6.3 | b ([3]; Nylon 6,6, Before test): −20.23 | ΔE [3, 7]: 1.39 | L ([3]; Polyester, After test): 68.28 | a ([3]; Polyester, After test): 1.01 | b ([3]; Polyester, After test): −0.5 | L ([3]; Polyester, Before test): 66.44 | a ([3]; Polyester, Before test): 4.15 | b ([3]; Polyester, Before test): −2.11 | ΔE [3, 8]: 3.98 | L ([3]; Wool, After test): 66.99 | a ([3]; Wool, After test): −0.18 | b ([3]; Wool, After test): 1.19 | L ([3]; Wool, Before test): 67.52 | a ([3]; Wool, Before test): 0.35 | b ([3]; Wool, Before test): 1.01 | ΔE [3, 9]: 0.77
SMILES: O=C1NC(c2c[nH]c3ccc(O)cc23)=C/C1=C1\C(=O)Nc2ccccc21 [violacein]
